Assay results taken from article PMC4300400, “Comparative biochemical analysis of three members of the Schistosoma mansoni TAL family: Differences in ion and drug binding properties” (Biochimie, 2015).
Counter-ions that a name gives are not always drawn.

Experiments:
SmTAL3 (Sm20.8) = biological target: T1, SmTAL3 (Sm20.8) (Schistosoma mansoni, UniProt P91804); assay: differential scanning fluorimetry (Sypro Orange); assay type: binding; conditions: 250 µM; 0.25 mM drug, 7 μM protein, 1% DMSO, 0.8 mM CaCl2, 50 mM Hepes pH 7.5, 150 mM NaCl; absolute Tm, not a shift (DMSO control in the 1st table, row 5)
T1 construct: gene Sm 20.8; recombinant, E. coli, N-terminal GST fusion cleaved with thrombin; EF-hand-like N-terminal plus DLC-like C-terminal domain; dimer and higher oligomers
T1 sequence (P91804 1-181): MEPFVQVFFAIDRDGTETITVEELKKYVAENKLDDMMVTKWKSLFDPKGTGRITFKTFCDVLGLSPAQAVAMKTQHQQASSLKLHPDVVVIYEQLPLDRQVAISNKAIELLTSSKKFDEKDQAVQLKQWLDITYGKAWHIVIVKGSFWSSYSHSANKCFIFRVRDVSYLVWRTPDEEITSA
Description: differential scanning fluorimetry (Sypro Orange) on SmTAL3 (Sm20.8)

SmTAL1 (Sm22.6) = biological target: T2, SmTAL1 (Sm22.6) (Schistosoma mansoni, UniProt P14202); assay: differential scanning fluorimetry (Sypro Orange); assay type: binding; conditions: 250 µM; 0.25 mM drug, 5 μM protein, 1% DMSO, 0.8 mM CaCl2, 50 mM Hepes pH 7.5, 150 mM NaCl; absolute Tm, not a shift (DMSO control in the 1st table, row 5)
T2 construct: gene A12; recombinant, E. coli, N-terminal GST fusion cleaved with thrombin; EF-hand N-terminal plus DLC-like C-terminal domain; dimer
T2 sequence (P14202 1-190): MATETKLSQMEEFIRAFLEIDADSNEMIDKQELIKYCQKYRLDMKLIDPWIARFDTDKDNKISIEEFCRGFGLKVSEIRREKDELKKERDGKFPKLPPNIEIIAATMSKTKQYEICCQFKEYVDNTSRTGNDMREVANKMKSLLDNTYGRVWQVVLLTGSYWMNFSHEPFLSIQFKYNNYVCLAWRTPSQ
Description: differential scanning fluorimetry (Sypro Orange) on SmTAL1 (Sm22.6)

SmTAL2 (Sm21.7) = biological target: T3, SmTAL2 (Sm21.7) (Schistosoma mansoni, UniProt P32070); assay: limited proteolysis protection (trypsin, chymotrypsin); assay type: binding; conditions: 250 μM drug, 10 μM protein, 1% DMSO, 0.8 mM CaCl2, 37 °C
T3 construct: recombinant, E. coli, N-terminal GST fusion cleaved with thrombin; EF-hand N-terminal plus DLC-like C-terminal domain; dimer
T3 sequence (P32070 1-184): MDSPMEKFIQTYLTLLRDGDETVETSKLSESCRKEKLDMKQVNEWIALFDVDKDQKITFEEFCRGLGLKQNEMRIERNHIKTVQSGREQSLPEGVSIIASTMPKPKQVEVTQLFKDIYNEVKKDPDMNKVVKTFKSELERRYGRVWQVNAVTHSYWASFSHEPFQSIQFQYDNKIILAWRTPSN

[1] = biological target: SmTAL3 (Schistosoma mansoni tegumental allergen-like protein 3) (Schistosoma mansoni); assay: cross-linking; BS3 (50, 150, 500 μM) with 10-15 μM protein in buffer R (50 mM Hepes-OH pH 7.5, 150 mM NaCl, 10% v/v glycerol), 37 °C, 35 min; with 0.8 mM EGTA or 0.8 mM EGTA/1.6 mM calcium chloride; analysed by 15% SDS-PAGE
[2] = biological target: the molecule itself; assay: as above

For `NCCCCCCNS(=O)(=O)c1cccc2c(Cl)cccc12` [W7, N-(6-Aminohexyl)-5-chloro-1-naphthalenesulfonamide hydrochloride], the SmTAL3 (SmTAL3 (Sm20.8)) was 74.3 ± 0.1 °C, the “melting temperature (Tm)” value (SmTAL1 (Sm22.6)) was 61.5 ± 0.3 °C and the “limited proteolysis protection (trypsin, chymotrypsin)” value (SmTAL2 (Sm21.7)) was “Of the drugs tested, only W7 protected SmTAL2 from limited proteolysis by trypsin or chymotrypsin”.

For “SmTAL3 (Schistosoma mansoni tegumental allergen-like protein 3) (natural protein)”, the stoichiometry N [1] was 2.

`CN1CCN(CCCN2c3ccccc3Sc3ccc(C(F)(F)F)cc32)CC1` [trifluoperazine] was tested, and the SmTAL3 (SmTAL3 (Sm20.8)) was 73.9 ± 0.1 °C and the “melting temperature (Tm)” value (SmTAL1 (Sm22.6)) was 62.2 ± 0.8 °C.

For `CN(C)CCCN1c2ccccc2Sc2ccc(Cl)cc21` [chlorpromazine], the SmTAL3 (SmTAL3 (Sm20.8)) was 74.1 ± 0.1 °C and the “melting temperature (Tm)” value (SmTAL1 (Sm22.6)) was 61.3 ± 0.3 °C.

For `O=C(C1CCCCC1)N1CC(=O)N2CCc3ccccc3C2C1` (centres unmarked) [praziquantel], the “melting temperature (Tm)” value (SmTAL1 (Sm22.6)) was 61.7 ± 0.2 °C.

B1: SmTAL2 (Schistosoma mansoni tegumental allergen-like protein 2) (natural protein, UniProt P32070 1-184, looked up)
chain: T3 sequence (P32070 1-184)
notes: SmTAL2 (Sm21.7), Schistosoma mansoni, GenBank AAA74050.1, Smp_086480.1; also called Sm21.7; source: E. coli, GST-fusion isolated on glutathione-agarose, cleaved with thrombin, free GST removed on Q-Sepharose; not shown: GST, N-terminal, cleaved
For B1, the “stoichiometry N” value [2] was 2.

B2: SmTAL1 (Schistosoma mansoni tegumental allergen-like protein 1) (natural protein, UniProt P14202 1-190, looked up)
chain: T2 sequence (P14202 1-190)
notes: SmTAL1 (Sm22.6), Schistosoma mansoni, GenBank AAA29922.1, Smp_045200.1; also called Sm22.6; source: E. coli, GST-fusion isolated on glutathione-agarose, cleaved with thrombin, free GST removed on Q-Sepharose; not shown: GST, N-terminal, cleaved
In the case of B2, the “stoichiometry N” value [2] is reported as 2.
